# Like-named read-outs stand apart in the source and are kept apart here.
# Legend:
# [1] = Freezing point of caustic solutions; type: physicochemical
# human skin = conditions: in vivo
# [2] = background statement on sodium hydroxide solutions, cited from earlier work
smiles,measurement,setting,value
"[Na+].[OH-] [25 wt % NaOH, sodium hydroxide]",freezing point,[1],−18 °C
same,effect on human skin,human skin,"immediate burning of the skin, followed with scarring"
same,freeze point (begins to freeze / will freeze),[2]; listed as 25% solution,−17 Celsius
"[Na+].[OH-] [50% sodium hydroxide solution, sodium hydroxide]",freeze point (begins to freeze / will freeze),[2],14 Celsius
